In patent publication US5071957A, “Antibiotic BU-4061T” (Bristol-Myers Company, priority 1990, dated 1991):
Converted amounts (≈) assume the structure as drawn.

Key:
[1] = test system: B16 melanoma; assay: Antitumor activity against B16 melanoma (ip)
Procedure: (§1) To determine in vivo antitumor activity of BU-4061T, male BDF1 mice were intraperitoneally inoculated with 0.5 ml of 10% melanotic melanoma B16 brei, and female CDF1 mice were intraperitoneally inoculated with 0.4 ml of diluted ascitic fluid containing 10^6 lymphocytic leukemia P388 cells. […] Test materials were intraperitoneally administered to mice on days 1, 5 and 9 (Q4D×3) or on days 1 to 9 (QlD×9).

[2] = test system: P388 leukemia; assay: Antitumor activity against P388 leukemia (ip); conditions: Q1D × 9
Procedure: as §1

[3] = test system: B16-F10 (murine melanoma) cells; assay: In vitro cytotoxicity against B16-F10 cells; type: cell-based; conditions: 72 hours, colorimetric at 540 nm
Procedure: (§2) B16-F10 (murine melanoma) and Moser (human colorectal carcinoma) cells were grown to the logarithmic phase in the enriched Eagle minimum essential medium supplemented with fetal calf serum (FCS, 10%) and kanamycin (60 μg/ml), while HCT-116 (human colon carcinoma) was grown in McCoy's 5A medium supplemented with FCS (10%) penicillin (100 μ/ml) and streptomycin (100 μg/ml). B16-F10, Moser and HCT-116 cells were harvested and implanted into wells of a 96-well microtiter plate with test materials at the inoculum sizes of 3×10^4, 6×10^4 and 6×10^4 cells/ml, respectively. They were incubated at 37° C. in a humidified atmosphere of 5% CO2 and 95% air for 72 hours. The cytotoxicity against tumor cells was determined colorimetrically at 540 nm after staining viable cells.

[4] = test system: HCT-116 (human colon carcinoma); assay: In vitro cytotoxicity against HCT-116 cells; type: cell-based; conditions: 72 hours, colorimetric at 540 nm
Procedure: as §2

[5] = test system: Moser (human colorectal carcinoma) cells; assay: In vitro cytotoxicity against Moser cells; type: cell-based
Procedure: as §2

[6] = test system: DNA synthesis in B16-F10 melanoma cells; assay: Inhibition of DNA synthesis (3H-thymidine incorporation) in B16-F10 melanoma cells; type: cell-based, murine
Procedure: (§3) Inhibitory effects of BU-4061T on the macromolecule (DNA, RNA and protein) synthesis were determined in cultured B16-F10 melanoma cells. B16-F10 cells (10^5 cells/ml) were incubated with the compound at 37° C. for 4.5 hours (for DNA synthesis) or 4 hours (for RNA and protein synthesis). Labelled precursor, ^3 H-thymidine, ^14 C-uridine or ^3 H-leucine was added to the culture and further incubated for 30 minutes (for DNA) or 60 minutes (for RNA and protein). After washing with chilled 5% trichloroacetic acid solution, the radioactivity incorporated into the acid-insoluble fraction of the tumor cells was determined by a liquid scintillation counter.

[7] = test system: RNA synthesis in B16-F10 melanoma cells; assay: Inhibition of RNA synthesis (14C-uridine incorporation) in B16-F10 melanoma cells; type: cell-based, murine
Procedure: as §3

[8] = test system: protein synthesis in B16-F10 melanoma cells; assay: Inhibition of protein synthesis (3H-leucine incorporation) in B16-F10 melanoma cells; type: cell-based, murine
Procedure: as §3

[9] = Solubility (physico-chemical properties); type: physicochemical
Source text: BU-4061T was obtained as a white amorphous powder. […] BU-4061T gave positive response to iodine vapor, ammonium molybdate-sulfuric acid solution and Rydon-Smith reagent, but negative response to ninhydrin and anthrone reagent.

CO[C@@]12[C@H](COC(N)=O)C3=C(C(=O)C(C)=C(N)C3=O)N1C[C@@H]1N[C@@H]12 [Mitomycin C, mitomycin C]
Body Wt. change on day 5 ([1]; 0.3 mg/kg/day ip, Q4D × 3): -0.3 g
MST (median survival time) ([1]; 0.3 mg/kg/day ip, Q4D × 3): 13.0 days
T/C ([1]; 0.3 mg/kg/day ip, Q4D × 3): 100%
Body Wt. change on day 5 ([1]; 1 mg/kg/day ip, Q4D × 3): -0.8 g
MST (median survival time) ([1]; 1 mg/kg/day ip, Q4D × 3): 18.0 days
Body Wt. change on day 5 ([1]; 3 mg/kg/day ip, Q4D × 3): -0.3 g
MST (median survival time) ([1]; 3 mg/kg/day ip, Q4D × 3): 28.0 days
Body Wt. change on day 4 ([2]; 0.063 mg/kg/day ip): +0.8 g
MST (median survival time) ([2]; 0.063 mg/kg/day ip): 11.0 days
T/C ([2]; 0.063 mg/kg/day ip): 110%
Body Wt. change on day 4 ([2]; 0.13 mg/kg/day ip): +1.3 g
MST (median survival time) ([2]; 0.13 mg/kg/day ip): 12.0 days
T/C ([2]; 0.13 mg/kg/day ip): 120%
Body Wt. change on day 4 ([2]; 0.25 mg/kg/day ip): +1.0 g
MST (median survival time) ([2]; 0.25 mg/kg/day ip): 13.0 days
Body Wt. change on day 4 ([2]; 0.5 mg/kg/day ip): 0.0 g
MST (median survival time) ([2]; 0.5 mg/kg/day ip): 15.5 days
Body Wt. change on day 4 ([2]; 1 mg/kg/day ip): -0.8 g
MST (median survival time) ([2]; 1 mg/kg/day ip): 17.0 days

CC[C@H](C)[C@H](NC(=O)[C@H]([C@@H](C)CC)N(C)C(C)=O)C(=O)N[C@H](C(=O)N[C@@H](CC(C)C)C(=O)[C@@]1(C)CO1)[C@@H](C)O [BU-4061T]
IC50 B16-F10 [3]: 0.0047 µg/mL (≈ 0.00847 µM)
IC50 HCT-116 [4]: 0.0067 µg/mL (≈ 0.0121 µM)
IC50 Moser ([5]; 72 hours, colorimetric at 540 nm): 0.17 µg/mL (≈ 0.306 µM)
cytotoxicity against Moser cells (in words) ([5]; compared with B16-F10 and HCT-116 cells): weaker than that against B16-F10 and HCT-116 cells
inhibitory effect on DNA synthesis (in words) [6]: moderate inhibitory effects
IC50 DNA ([6]; 4.5 hours + 30 minutes 3H-thymidine): 16 µg/mL
inhibitory effect on RNA synthesis (in words) [7]: moderate inhibitory effects
IC50 RNA ([7]; 4 hours + 60 minutes 14C-uridine): 46 µg/mL
inhibition of incorporation of leucine into the protein fraction (in words) ([8]; 100 μg/ml, the highest concentration tested): did not significantly inhibit
IC50 Protein ([8]; B16-F10 cells, 4 hours + 60 minutes 3H-leucine): > 100 µg/mL
MST (median survival time) ([1]; 0.063 mg/kg/day ip, Q1D × 9): 15.5 days
T/C ([1]; 0.063 mg/kg/day ip, Q1D × 9): 119%
MST (median survival time) ([1]; 0.13 mg/kg/day ip, Q1D × 9): 16.0 days
T/C ([1]; 0.13 mg/kg/day ip, Q1D × 9): 123%
MST (median survival time) ([1]; 0.25 mg/kg/day ip, Q1D × 9): 18.0 days
MST (median survival time) ([1]; 0.25 mg/kg/day ip, Q4D × 3): 14.5 days
T/C ([1]; 0.25 mg/kg/day ip, Q4D × 3): 112%
MST (median survival time) ([1]; 0.5 mg/kg/day ip, Q1D × 9): 19.5 days
MST (median survival time) ([1]; 0.5 mg/kg/day ip, Q4D × 3): 15.5 days
T/C ([1]; 0.5 mg/kg/day ip, Q4D × 3): 119%
MST (median survival time) ([1]; 1 mg/kg/day ip, Q1D × 9): 19.0 days
MST (median survival time) ([1]; 1 mg/kg/day ip, Q4D × 3): 15.5 days
T/C ([1]; 1 mg/kg/day ip, Q4D × 3): 119%
MST (median survival time) ([1]; 2 mg/kg/day ip, Q4D × 3): 17.0 days
MST (median survival time) ([1]; 4 mg/kg/day ip, Q4D × 3): 16.5 days
antitumor activity against B16 melanoma (in words) ([1]; ip, either Q4D×3 or Q1D×9 treatment schedule): significant antitumor activities
MST (median survival time) ([2]; 0.063 mg/kg/day ip): 10.5 days
T/C ([2]; 0.063 mg/kg/day ip): 105%
MST (median survival time) ([2]; 0.13 mg/kg/day ip): 11.0 days
T/C ([2]; 0.13 mg/kg/day ip): 110%
MST (median survival time) ([2]; 0.25 mg/kg/day ip): 11.5 days
T/C ([2]; 0.25 mg/kg/day ip): 115%
MST (median survival time) ([2]; 0.5 mg/kg/day ip): 13.0 days
MST (median survival time) ([2]; 1 mg/kg/day ip): 10.5 days
T/C ([2]; 1 mg/kg/day ip): 105%
solubility in ethyl acetate ([9]; ethyl acetate): readily soluble
solubility in methanol ([9]; methanol): readily soluble
solubility in methylene chloride ([9]; methylene chloride): readily soluble
solubility in water ([9]; water): practically insoluble
